Test results: the supplement of paper PMC10307832

How the values were obtained:
Assay in all cases: relative viability (nuclei count vs DMSO), 5 days (fraction); higher = more cells survive
Dovitinib = compound: CN1CCN(c2ccc3nc(-c4c(N)c5c(F)cccc5[nH]c4=O)[nH]c3c2)CC1 [Dovitinib]
In short: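 For viability, nuclei in each treated well were divided by nuclei in vehicle wells and the median across plates was taken. Lung cancer cell lines in 1536-well plates were pinned with five library-drug doses (not always all listed) spaced by √10, cultured 5 days without medium change, and imaged at 4× after Hoechst staining, with plates passing only at control CV below 25% and at least one doubling.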

Dovitinib + Tozasertib = compound: CN1CCN(c2ccc3nc(-c4c(N)c5c(F)cccc5[nH]c4=O)[nH]c3c2)CC1 [Dovitinib] + Cc1cc(Nc2cc(N3CCN(C)CC3)nc(Sc3ccc(NC(=O)C4CC4)cc3)n2)n[nH]1 [Tozasertib] (partner 0.1 µM)
In short: (§1)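 Lung cancer cell lines in 1536-well plates got either a single drug or a fixed anchor-drug dose together with five library-drug doses (not always all listed) in √10 steps, by pin tool, on the day after seeding. Nuclei were counted after 5 days, and relative viability is the treated-to-vehicle ratio of nuclei counts. Values are medians of duplicate plates.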

Dovitinib + Trametinib = compound: CN1CCN(c2ccc3nc(-c4c(N)c5c(F)cccc5[nH]c4=O)[nH]c3c2)CC1 [Dovitinib] + CC(=O)Nc1cccc(-n2c(=O)n(C3CC3)c(=O)c3c(Nc4ccc(I)cc4F)n(C)c(=O)c(C)c32)c1 [Trametinib] (partner 0.02 µM)
In short: as §1

Dovitinib + AZD7762 = compound: CN1CCN(c2ccc3nc(-c4c(N)c5c(F)cccc5[nH]c4=O)[nH]c3c2)CC1 [Dovitinib] + NC(=O)Nc1cc(-c2cccc(F)c2)sc1C(=O)N[C@H]1CCCNC1 [AZD7762] (partner 0.2 µM)
In short: as §1

| Cell Line | relative viability (Dovitinib; 0.02 µM) | relative viability (Dovitinib; 0.06325 µM) | relative viability (Dovitinib; 0.2 µM) | relative viability (Dovitinib; 0.6325 µM) | relative viability (Dovitinib; 2 µM) | relative viability (Dovitinib + Tozasertib; first compound 0.02 µM) | relative viability (Dovitinib + Tozasertib; first compound 0.06325 µM) | relative viability (Dovitinib + Tozasertib; first compound 0.2 µM) | relative viability (Dovitinib + Tozasertib; first compound 0.6325 µM) | relative viability (Dovitinib + Tozasertib; first compound 2 µM) | relative viability (Dovitinib + Trametinib; first compound 0.02 µM) | relative viability (Dovitinib + Trametinib; first compound 0.06325 µM) | relative viability (Dovitinib + Trametinib; first compound 0.2 µM) | relative viability (Dovitinib + Trametinib; first compound 0.6325 µM) | relative viability (Dovitinib + Trametinib; first compound 2 µM) | relative viability (Dovitinib + AZD7762; first compound 0.02 µM) | relative viability (Dovitinib + AZD7762; first compound 0.06325 µM) | relative viability (Dovitinib + AZD7762; first compound 0.2 µM) | relative viability (Dovitinib + AZD7762; first compound 0.6325 µM) | relative viability (Dovitinib + AZD7762; first compound 2 µM) |
| --- | --- | --- | --- | --- | --- | --- | --- | --- | --- | --- | --- | --- | --- | --- | --- | --- | --- | --- | --- | --- |
| NCI-H1755 | 1.04 | 1.02 | 1.01 | 0.998 | 1.02 | 0.53 | 0.62 | 0.554 | 0.561 | 0.555 | 0.831 | 0.766 | 0.794 | 0.733 | 0.758 | 0.427 | 0.461 | 0.484 | 0.593 | 0.436 |
| NCI-H2087 | 0.981 | 0.982 | 1.05 | 1.18 | 1.05 | 0.196 | 0.271 | 0.308 | 0.209 | 0.286 | 0.274 | 0.221 | 0.251 | 0.196 | 0.214 | 1.35 | 1.38 | 1.27 | 1.29 | 1.31 |
| NCI-H2228 | 0.832 | 1.17 | 1.16 | 0.966 | 0.962 | 0.249 | 0.281 | 0.207 | 0.216 | 0.265 | 0.652 | 0.467 | 0.454 | 0.507 | 0.488 |  |  |  |  |  |
| NCI-H727 | 1.1 | 0.782 | 0.968 | 0.989 | 0.921 | 0.573 | 0.658 | 0.588 | 0.691 | 0.761 | 0.405 | 0.401 | 0.407 | 0.416 | 0.426 | 0.639 | 0.536 | 0.597 | 0.637 | 0.555 |
| NCI-H650 | 0.97 | 0.883 | 1 | 0.927 | 1.03 | 0.713 | 0.689 | 0.725 | 0.824 | 0.854 | 1.02 | 0.952 | 1.08 | 0.946 | 1.21 | 1.05 | 1.35 | 0.951 | 1.08 | 1 |
| NCI-H520 | 1.01 | 1.02 | 0.944 | 0.976 | 0.955 | 0.453 | 0.486 | 0.409 | 0.431 | 0.427 | 0.599 | 0.619 | 0.812 | 0.586 | 0.638 |  |  |  |  |  |
| EBC-1 | 1.08 | 0.997 | 1.06 | 0.975 | 1.06 |  |  |  |  |  |  |  |  |  |  |  |  |  |  |  |
| NCI-H661 | 0.988 | 0.993 | 1.04 | 1.03 | 1.06 | 0.347 | 0.355 | 0.36 | 0.361 | 0.38 | 0.581 | 0.617 | 0.678 | 0.637 | 0.607 |  |  |  |  |  |
| NCI-H1299 | 0.966 | 1.03 | 1.03 | 0.98 | 1.03 |  |  |  |  |  |  |  |  |  |  |  |  |  |  |  |
| SK-LU-1 | 0.991 | 1.09 | 1.08 | 1.08 | 1.11 | 0.305 | 0.375 | 0.33 | 0.325 | 0.409 | 0.429 | 0.516 | 0.491 | 0.551 | 0.52 |  |  |  |  |  |
| COR-L23 | 0.967 | 1.1 | 0.987 | 1.06 | 1.04 | 0.207 | 0.191 | 0.194 | 0.172 | 0.215 | 0.568 | 0.641 | 0.601 | 0.532 | 0.628 |  |  |  |  |  |
| NCI-H1650 | 0.949 | 0.998 | 0.987 | 0.93 | 1.05 | 0.394 | 0.349 | 0.424 | 0.325 | 0.361 | 0.718 | 0.625 | 0.757 | 0.598 | 0.816 |  |  |  |  |  |
| IA-LM | 0.864 | 1.02 | 0.962 | 0.989 | 0.873 |  |  |  |  |  |  |  |  |  |  |  |  |  |  |  |
| NCI-H2009 | 0.881 | 1.01 | 1.02 | 1.03 | 1.12 | 0.698 | 0.761 | 0.782 | 0.683 | 0.886 | 0.291 | 0.301 | 0.289 | 0.228 | 0.265 |  |  |  |  |  |
| NCI-H1563 | 1.01 | 1.07 | 0.97 | 1.05 | 1.08 |  |  |  |  |  |  |  |  |  |  |  |  |  |  |  |
| SK-MES-1 | 0.988 | 1.01 | 1.06 | 1.01 | 1.03 | 0.861 | 0.934 | 0.893 | 0.835 | 0.983 | 0.531 | 0.59 | 0.597 | 0.567 | 0.61 |  |  |  |  |  |
| UMC-11 | 0.959 | 0.941 | 0.992 | 0.981 | 0.939 | 0.213 | 0.201 | 0.203 | 0.199 | 0.22 | 0.742 | 0.69 | 0.793 | 0.669 | 0.767 |  |  |  |  |  |
| ABC-1 | 0.847 | 0.953 | 1.08 | 1.1 | 0.924 | 0.175 | 0.208 | 0.201 | 0.208 | 0.192 |  |  |  |  |  | 0.519 | 0.852 | 0.735 | 0.536 | 0.698 |
| SW 1573 | 1.05 | 0.992 | 1.01 | 0.947 | 1.07 | 0.183 | 0.175 | 0.163 | 0.144 | 0.164 | 0.579 | 0.617 | 0.563 | 0.551 | 0.592 |  |  |  |  |  |
| NCI-H1792 | 0.898 | 0.818 | 0.894 | 1.04 | 0.907 |  |  |  |  |  | 0.394 | 0.457 | 0.416 | 0.46 | 0.36 | 0.559 | 0.761 | 0.676 | 0.796 | 0.559 |
| NCI-H2023 | 0.94 | 0.969 | 1.11 | 1 | 0.926 | 0.324 | 0.334 | 0.384 | 0.261 | 0.313 | 0.549 | 0.493 | 0.405 | 0.5 | 0.537 |  |  |  |  |  |
| COR-L 105 | 0.924 | 0.961 | 1.11 | 0.97 | 0.981 | 0.345 | 0.299 | 0.365 | 0.394 | 0.168 | 0.533 | 0.405 | 0.441 | 0.459 | 0.577 |  |  |  |  |  |
